Measurements from US7135292B2, “Analysis and modification of gene expression in marine invertebrate cells” (Harbor Branch Oceanographic Institution, Inc., priority 2002, dated 2006).

System: Axinella corrugata cell cultures
Assay: Human-sequence microarray (Gene Filters) analysis of gene expression, PHA-treated vs untreated sponge cell cultures
Assay type: cell-based
Source text: Sponge Cells. Cells were obtained from cryopreserved stocks at Harbor Branch Oceanographic Institution. All cells were derived from Axinella corrugata specimens collected in the waters of Florida, the Bahamas, and the Caribbean Sea, and were cryopreserved according to Pomponi et al. (Pomponi et al. 1997b supra). This sponge is relatively common and easy to collect, amenable to culture efforts, and produces the bioactive compound, stevensine, in vitro (Pomponi et al. 1997b supra). Enriched fractions of dissociated sponge cells were prepared, cryopreserved, and thawed according to previously published methods (Pomponi et al. 1997b supra). Cells were incubated at 22–25° C. in a growth medium consisting of a modified and supplemented commercial formulation (Willoughby and Pomponi 2000 supra). The length of the incubation period was based on my unpublished observation of elevated DNA and protein contents (9%, P=0.034, and 9%, P=0.038, respectively) in PHA-treated cultures, according to fluorescent assays of 6 replicate comparisons (Willoughby and Pomponi 2000 supra). Since the effects were observed between 6 and 18 hours after treatment, cells were cultured for 12-hour periods representing the center point of the period of observed changes. Two sets of cultures were incubated with approximately 2×10^8 cells per T-75 flask—a control set and an experimental set treated with 1.5% phytohemagglutinin (PHA) (Life Technologies, M-form).
RNA Isolation. RNA isolation was performed on unrinsed, pelleted cells. Pellets were quickly frozen in a dry ice alcohol bath and stored at −70° C. until RNA isolation. The Qiagen RNeasy® protocol was used, with the following modifications. Samples were disrupted with a micropestle or homogenized by the rotor-stator method, using twice the recommended volume of lysis solution. Prior to column loading, samples were centrifuged through a Qiashredder® column to complete homogenization and remove insoluble material. Supernatant was collected for use in the rest of the protocol. During the first wash step, samples were incubated on the column with DNase 1 (Qiagen or Ambion) for 15 minutes. After the final wash, samples were incubated on the column with the RNase free elution water for 15 minutes prior to elution. Sub-samples were diluted 20× and quantified on a Genequant® spectrophotometer.
cDNA Labeling. Sub-samples of the isolated total RNA (8 μl) were primed with oligo dT (10–20 mer) (Research Genetics, Inc.) for 10 minutes at 70° C., then briefly chilled on ice, followed by addition of 2 volumes of RT cocktail based upon the Life Technologies Superscript II® protocol (containing dATP, dGTP, dTTP, and α-^33P dCTP [NEN Easy Tides®, 3000 Ci/mmol]). The mixture was incubated for 90 minutes at 37° C., and diluted to 100 μl for purification on a Bio-Spin column (Boi-Rad) according to the Gene Filter® (Research Genetics, Inc.) recommended protocol. The resultant labeled probes were then denatured for 3 minutes in a boiling water bath prior to incorporation into the hybridization solution.
Microarrays. Research Genetics Gene Filters®, version 211, were employed in this study. These microarrays feature over 4000 distinct sequence-verified genes spotted onto a 5×7 cm nylon membrane. The DNA at each spot represents approximately 1 kb from the 3′ end of the gene. The microarrays also include spots of total genomic DNA (see FIG. 5). The 211 series is constructed from human sequences. A cross-referenced database listing of all the genes represented on the array is available at http://www.resgen.com. The 2 genes referenced in this work carry the I.M.A.G.E. Consortium (Lennon, G. G., C. Auffray, M. Polymeropoulos and M. B. Soares 1996, Genomics 33:151–152), Clone IDs 81408 (calcineurin B) and 858292 (cdc10).
Hybridization. […]

phytohemagglutinin [PHA]
Ratio, Small inducible cytokine A11 (eotaxin) (No. 56, PHA treated/untreated, 12 h): 0.493 | Ratio, Major histocompatibility complex, class II, DR beta 5 (No. 57, PHA treated/untreated, 12 h): 0.255 | Ratio, Evi-1 (No. 58, PHA treated/untreated, 12 h): 0.159 | Ratio, Homo sapiens thrombospondin 3 (THBS3) gene, complete cds (No. 59, PHA treated/untreated, 12 h): 0.019 | Ratio, RhoE (No. 60, PHA treated/untreated, 12 h): 0.312 | Ratio, Human bone morphogenetic protein-3b (No. 61, PHA treated/untreated, 12 h): 0.209 | Ratio, Vitamin K-dependent gamma-B74carboxylase (No. 62, PHA treated/untreated, 12 h): 2.101 | Ratio, Homo sapiens cdc14 homolog mRNA, complete cds (No. 63, PHA treated/untreated, 12 h): 11.905 | Ratio, Homo sapiens, alpha-1 (VI) collagen (No. 64, PHA treated/untreated, 12 h): 2.509 | Ratio, Homo sapiens BAI 3 mRNA, complete cds (No. 65, PHA treated/untreated, 12 h): 3.228 | Ratio, Human TFIIB related factor hBRF (HBRF) mRNA, complete cds (No. 66, PHA treated/untreated, 12 h): 0.118 | Ratio, Human capping protein alpha mRNA, partial cds (No. 67, PHA treated/untreated, 12 h): 2.650 | Ratio, Human melanocyte-specific gene 1 (msg1) mRNA, complete cds (No. 68, PHA treated/untreated, 12 h): 0.390 | Ratio, Ras-like protein TC21 (No. 69, PHA treated/untreated, 12 h): 2.737 | Ratio, Homo sapiens mRNA for inositol 1,4,5-trisphosphate 3-kinase isoenzyme, partial cds (No. 70, PHA treated/untreated, 12 h): 0.494 | Ratio, Homo sapiens clone 23619 phosphoprotein mRNA, partial cds (No. 71, PHA treated/untreated, 12 h): 0.296 | Ratio, Human lysosomal glycosylasparaginase (AGA) gene (No. 72, PHA treated/untreated, 12 h): 0.317 | Ratio, COUP transcription factor (No. 73, PHA treated/untreated, 12 h): 0.080 | Ratio, Human mRNA for prepro cortistatin like peptide, complete cds (No. 74, PHA treated/untreated, 12 h): 3.616 | Ratio, Homo sapiens mRNA for repressor protein, partial cds (No. 75, PHA treated/untreated, 12 h): 0.483 | Ratio, N-Terminal acetyltransferase complex ARD1 subunit homolog + B88 (No. 76, PHA treated/untreated, 12 h): 0.275 | Ratio, Human alpha-tubulin isotype H2-alpha gene, last exon (No. 77, PHA treated/untreated, 12 h): 0.264 | Ratio, Human alpha-cardiac actin gene, 5′ flank and (No. 78, PHA treated/untreated, 12 h): 0.402 | Ratio, Homo sapiens MAD-related gene SMAD7 (SMAD7) mRNA, complete cds (No. 79, PHA treated/untreated, 12 h): 3.829 | Ratio, Human ETS2 oncogene (No. 80, PHA treated/untreated, 12 h): 2.260 | Ratio, Human mRNA for alpha-catenin, complete cds (No. 81, PHA treated/untreated, 12 h): 0.147 | Ratio, Human mRNA for TESK1, complete cds (No. 82, PHA treated/untreated, 12 h): 0.282 | Ratio, Homo sapiens DnaJ protein (HSPF2) mRNA, complete cds (No. 83, PHA treated/untreated, 12 h): 0.206 | Ratio, Keratin, type I cytoskeletal 20 (No. 84, PHA treated/untreated, 12 h): 0.283 | Ratio, Homo sapiens FMRFamide-related prepropeptide mRNA, complete cds (No. 85, PHA treated/untreated, 12 h): 2.156 | Ratio, H. sapiens mRNA for p40 (No. 86, PHA treated/untreated, 12 h): 7.841 | Ratio, Homo sapiens mRNA for p115, complete cds (No. 87, PHA treated/untreated, 12 h): 0.477 | Ratio, Factor VIII intron 22 protein (No. 88, PHA treated/untreated, 12 h): 0.490 | Ratio, Human RNA polymerase II subunit hsRPB7 mRNA, complete cds (No. 89, PHA treated/untreated, 12 h): 0.441 | Ratio, Homo sapiens mRNA for osteomodulin, complete cds (No. 90, PHA treated/untreated, 12 h): 0.354 | Ratio, Hemoglobin zeta chain (No. 91, PHA treated/untreated, 12 h): 11.817 | Ratio, Human cartilage-specific homeodomain protein Cart-1 mRNA, complete cds (No. 92, PHA treated/untreated, 12 h): 0.201 | Ratio, Human cytochrome bc-1 complex core protein II mRNA, complete cds (No. 93, PHA treated/untreated, 12 h): 0.325 | Ratio, H. sapiens mRNA for Ndr protein kinase (No. 94, PHA treated/untreated, 12 h): 0.435 | Ratio, Human HEM45 mRNA, complete cds (No. 95, PHA treated/untreated, 12 h): 0.114 | Ratio, C-1-tetrahydrofolate synthase, cytoplasmic (No. 96, PHA treated/untreated, 12 h): 2.966 | Ratio, Homo sapiens mRNA for transducin (beta) like 1 protein (No. 97, PHA treated/untreated, 12 h): 0.091 | Ratio, Human Bcl-2 related (Bfl-1) mRNA, complete cds (No. 98, PHA treated/untreated, 12 h): 0.472 | Ratio, H. sapiens mRNA for InsP3 5-phosphatase (No. 99, PHA treated/untreated, 12 h): 0.215 | Ratio, H. sapiens mRNA for 17-beta-hydroxysteroid dehydrogenase (No. 100, PHA treated/untreated, 12 h): 0.432 | Ratio, Ubiquitin carboxyl-terminal hydrolase isozyme L3 (No. 101, PHA treated/untreated, 12 h): 0.388 | Ratio, Human putative tRNA synthetase-like protein mRNA, complete cds (No. 102, PHA treated/untreated, 12 h): 0.493 | Ratio, Human galectin-4 (GAL4) mRNA, complete cds (No. 103, PHA treated/untreated, 12 h): 0.443 | Ratio, Glycylpeptide N-tetradecanoyl transferase (No. 104, PHA treated/untreated, 12 h): 0.354 | Ratio, H. sapiens LDLC mRNA (No. 105, PHA treated/untreated, 12 h): 0.395 | Ratio, Human CREB-binding protein (CBP) mRNA, complete cds (No. 106, PHA treated/untreated, 12 h): 0.210 | Ratio, Human enigma gene, complete cds (No. 107, PHA treated/untreated, 12 h): 0.496 | Ratio, Human FEZ2 mRNA, partial cds (No. 108, PHA treated/untreated, 12 h): 0.283 | calcineurin down-regulated by the PHA treatment (microarray) (approximately): 2–5 fold | cdc10 up-regulated by the PHA treatment (microarray) (approximately): 2–5 fold
